Assay results: ChEMBL document CHEMBL3621146, “Design of Potent and Orally Active GPR119 Agonists for the Treatment of Type II Diabetes” (ACS Med Chem Lett, 2015)
Values after ≈ are worked out from the molar mass of the structure shown.

Columns and labels:
[1] = molecular target: T1, Glucose-dependent insulinotropic receptor (Homo sapiens, UniProt Q8TDV5); experiment: Agonist activity at human GPR119 expressed in CHO cells by cAMP assay; assay type: functional, cell-based
T1 sequence (Q8TDV5 whole entry): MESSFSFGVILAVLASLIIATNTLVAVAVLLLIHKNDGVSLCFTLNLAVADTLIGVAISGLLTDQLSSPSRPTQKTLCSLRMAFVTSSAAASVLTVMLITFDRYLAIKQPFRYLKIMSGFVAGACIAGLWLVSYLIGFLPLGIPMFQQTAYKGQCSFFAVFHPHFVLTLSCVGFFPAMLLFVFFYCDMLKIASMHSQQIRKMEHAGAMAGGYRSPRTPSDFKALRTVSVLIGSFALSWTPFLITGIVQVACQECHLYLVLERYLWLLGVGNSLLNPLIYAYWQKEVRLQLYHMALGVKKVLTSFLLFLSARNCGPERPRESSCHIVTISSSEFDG

[2] = Kinetic solubility in FaSSIF at pH 6.5; assay type: physicochemical; conditions: for solubility kinetic: FaSSIF, read-out: Kinetic_solubility
[3] = Lipophilicity, logD of the compound at pH 7 by HPLC method; assay type: physicochemical; conditions: buffer
[4] = molecular target: T2, Glucose-dependent insulinotropic receptor (Homo sapiens) (UniProt Q8TDV5); experiment: Agonist activity at human GPR119 by cAMP assay relative to control; assay type: functional; parameters: concentration or dose not given beside the values
T2 sequence (whole entry): T1 sequence (Q8TDV5 whole entry)

[5] = molecular target: T3, Glucose-dependent insulinotropic receptor (Mus musculus, UniProt Q7TQP3); experiment: Agonist activity at mouse GPR119 by cAMP assay; assay type: functional
T3 sequence (Q7TQP3 whole entry): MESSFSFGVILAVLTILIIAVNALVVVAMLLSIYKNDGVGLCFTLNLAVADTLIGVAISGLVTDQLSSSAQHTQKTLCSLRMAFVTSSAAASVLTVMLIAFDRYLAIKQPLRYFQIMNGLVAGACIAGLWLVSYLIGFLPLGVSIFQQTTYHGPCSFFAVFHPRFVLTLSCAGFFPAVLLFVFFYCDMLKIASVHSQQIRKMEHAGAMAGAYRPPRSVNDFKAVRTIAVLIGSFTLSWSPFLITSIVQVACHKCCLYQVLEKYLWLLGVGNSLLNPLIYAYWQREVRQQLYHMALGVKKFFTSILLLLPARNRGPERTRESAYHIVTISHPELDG

[6] = molecular target: T4, Glucose-dependent insulinotropic receptor (Mus musculus) (UniProt Q7TQP3); experiment: Agonist activity at mouse GPR119 by cAMP assay relative to control; assay type: functional; parameters: concentration or dose not given beside the values
T4 sequence (whole entry): T3 sequence (Q7TQP3 whole entry)

[7] = Half life in Wistar Han rat at 0.5 mg/kg, iv LC-MS/MS method; assay type: ADME, organism-based; conditions: Wistar Han, in vivo

Compound	EC50 [1]	solubility kinetic [2]	logD [3]	Activity [4]	EC50 [5]	Activity [6]	half-life [7]	Kinetic_solubility ([2]; simulated gi fluid)
CCOc1cnc(N2CCC([C@H]3C[C@H]3COCc3ccc(S(C)(=O)=O)c(F)c3)CC2)nc1	1.7 nM	101 µM (≈ 46.8 µg/mL)	4.2	75%	2.3 nM	96%	0.8 h	
CC(C)c1noc(N2CCC([C@H]3C[C@H]3COCc3ccc(S(C)(=O)=O)cc3F)CC2)n1	4.2 nM	144 µM (≈ 65 µg/mL)	3.8	87%	9.9 nM	76%	2.2 h	
CS(=O)(=O)c1ccc(COC[C@@H]2C[C@@H]2C2CCN(c3ncc(F)cn3)CC2)cc1F	2.4 nM	92 µM (≈ 40.3 µg/mL)	4.2	85%	4.5 nM	131%	1.5 h	
COCc1cnc(N2CCC([C@H]3C[C@H]3COCc3ccc(S(C)(=O)=O)c(F)c3)CC2)nc1	3.3 nM	155 µM (≈ 71.9 µg/mL)	3.5	94%	5.2 nM	87%	1.2 h	
COC(C)c1cnc(N2CCC([C@H]3C[C@H]3COCc3ccc(S(C)(=O)=O)cc3F)CC2)nc1 (stereo in doubt; 29) [listing 1 of 2 here]				87%		109%		
CCc1cnc(N2CCC([C@H]3C[C@H]3COCc3ccc(S(C)(=O)=O)cn3)CC2)nc1	1.5 nM	7 µM (≈ 3.01 µg/mL)	3.6	83%	2.5 nM	153%	1.3 h	
CC1(OC(=O)N2CCC([C@H]3C[C@H]3COCc3ccc(-n4cnnn4)cc3F)CC2)CC1	4.8 nM	127 µM (≈ 54.5 µg/mL)	3.8	121%	15 nM	108%	1 h	
CCc1cnc(N2CCC([C@H]3C[C@H]3COCc3ccc(S(C)(=O)=O)c(F)c3)CC2)nc1	2.5 nM	140 µM (≈ 62.7 µg/mL)	4.3	98%	5.5 nM	115%	1 h	
COc1cnc(N2CCC([C@H]3C[C@H]3COCc3ccc(S(C)(=O)=O)cc3F)CC2)nc1	4.5 nM	151 µM (≈ 67.9 µg/mL)	4	79%	1.4 nM	85%	0.6 h	
COCc1cnc(N2CCC([C@H]3C[C@H]3COCc3ccc(CC(=O)N4CCOCC4)cc3F)CC2)nc1	3.2 nM	172 µM (≈ 88.2 µg/mL)	3.4	104%	3.7 nM	99%	0.4 h	
CC(C)c1noc(N2CCC([C@H]3C[C@H]3COCc3ccc(-n4cnnn4)cc3F)CC2)n1	1.7 nM	103 µM (≈ 45.5 µg/mL)	3.9	129%	4.8 nM	105%	1.4 h	
COCc1cnc(N2CCC([C@H]3C[C@H]3COCc3cc(F)c(S(C)(=O)=O)c(F)c3)CC2)nc1	4.5 nM	115 µM (≈ 55.4 µg/mL)	3.6	80%	5.8 nM	67%	0.5 h	
COCc1cnc(N2CCC([C@H]3C[C@H]3COCc3ccc(-n4cnnn4)c(F)c3)CC2)nc1	1.1 nM	133 µM (≈ 60.3 µg/mL)	3.7	84%	3.8 nM	75%	3 h	
COC(C)c1cnc(N2CCC([C@H]3C[C@H]3COCc3ccc(S(C)(=O)=O)cc3F)CC2)nc1 (stereo in doubt; 29) [listing 2 of 2 here]	3.1 nM				8.9 nM		1.4 h	143 µM
COC(C)c1cnc(N2CCC([C@H]3C[C@H]3COCc3ccc(S(C)(=O)=O)cc3F)CC2)nc1 (stereo in doubt; 30)				95%		70%		
